# Measured values as given in patent US20250108036A1, “COMPOSITIONS FOR REMOVING SENESCENT CELLS AND USES THEREOF” (LIFECEUTIX CO., LTD., priority 2021, published 2025).
# How the values were obtained:
# [1] = tested on: SAOS-2; assay: senescent SAOS-2 tumor size in mice (Example 2-3); format: in vivo, BALB/c nude mice; conditions: doxorubicin 10 mg/kg i.p.; after 10 days LX-112 100 mg/kg oral daily 21 days or repeated doxorubicin
# Protocol: After 7-week-old male BALB/c nude mice (purchased from KRIBB Laboratory Animal Resource Center) were adapted to the experimental environment for one week, the mice were randomized into an experimental group and a control group. SAOS-2 (10^6 cells), a human osteosarcoma cancer cell line cultured in the same manner as Example 2-1, was mixed with PBS (purchased from Welgene) and then anesthetized using 2% isoflurane (purchased from Sigma). It was administered subcutaneously to mice. When the size of the tumor reached about […], doxorubicin was mixed at a concentration of 10 mg/kg in a 1:1 solution of distilled water and PBS (pH 7.2) and administered intraperitoneally to induce tumor aging. After 10 days, LX-112 mixed with 0.5% CMC-Na solution (purchased from Sigma) at a concentration of 100 mg/kg was orally administered daily for 21 days, and the size of the tumor was measured. The control group was repeatedly administered a solution mixed with doxorubicin, and then the size of the tumor was measured.
# [2] = tested on: AST, ALT; assay: serum AST and ALT in doxorubicin-aged mice (Example 8-8); format: in vivo, C57BL6J mice; conditions: doxorubicin-aged mice, LX-112 70 mg/kg oral daily 21 days, DOX without LX = 100%
# Protocol: After adapting 8-week-old male C57BL6J mice (purchased from KRIBB Laboratory Animal Resource Center) to the experimental environment for 1 week, doxorubicin, an anticancer drug, was administered intraperitoneally at a concentration of 10 mg/kg, and mice that were induced to age for more than 10 days were assigned to an experimental group and a control group. LX-112 was mixed with 0.5% CMC-Na solution (purchased from Sigma) and administered orally at a concentration of 70 mg/kg daily for 21 days. The control group was administered only the solution in the same volume. After drug administration was completed, the method described in each Example below was performed.
# In the same manner as in Example 7-5, the amounts of AST (aspartate aminotransferase) and ALT (alanine transaminase) released into the blood during liver damage were measured by spectrophotometry in the serum collected from mice using a kit (purchased from Sigma) according to the method described in the manual. […] Table 50 calculates the amount of each factor after aging was induced by treatment with the anticancer drug as 100% and compared it with the amount of each factor after treatment with LX-112.
# [3] = tested on: lipofuscin; assay: lipofuscin (Sudan Black B) staining of muscle of naturally aged mice (Example 7-4); format: in vivo, C57BL6J mice; conditions: stained area, LX-112 70 mg/kg oral daily 21 days
# Protocol: After 22-month-old female C57BL6J mice (purchased from KRIBB Laboratory Animal Resource Center) were adapted to the experimental environment for one week, the aged mice were randomized into an experimental group and a control group. 8-week-old mice that were not aged were used as controls. LX-112 was mixed with 0.5% CMC-Na solution (purchased from Sigma) and administered orally at a concentration of 70 mg/kg daily for 21 days. The control group was administered only the solution in the same volume. After drug administration was completed, the method described in each Example below was performed.
# Mice was sacrificed and tissue sections from muscle tissue were prepared in the same manner as in Example 7-3. Lipofuscin is a degenerative abnormal complex of proteins and lipids produced in cell lysosomes with aging and is a marker of aging-related degeneration. The amount of lipofuscin was measured as follows: the sections were stained using Sudan Black B (purchased from Sigma) and photographed, and then the area of the stained area was calculated using the Image J program and quantified by normalizing it based on the total area.
# [4] = tested on: foreskin cells in which aging was induced by doxorubicin; assay: cell viability of senescent foreskin cells with caspase inhibitor QVD-Oph (Example 10, Table 61); format: cell-based, human; conditions: LX-112 10 μM; for Survial (%): doxorubicin-senescent foreskin cells, 3 days
# [5] = chlorhexidine gluconate-induced peritoneal fibrosis in mice (Example 6-2); format: in vivo, C57BL6J mice; conditions: 0.1% CHG 10 ml/kg i.p. every 2 days for 20 days; LX-112 70 mg/kg i.p. daily from day 9
# Protocol: After 8-week-old male C57BL6J mice (purchased from KRIBB Laboratory Animal Resource Center) were adapted to the experimental environment for 1 week, the mice were randomized into an experimental group and a control group. To induce peritoneal fibrosis, 0.1% chlorhexidine gluconate (CHG, purchased from Sigma) was dissolved in 15% ethanol phosphate buffer solution and administered intraperitoneally at a concentration of 10 ml/kg every 2 days for 20 days. From day 9, LX-112 was mixed with 0.5% CMC-Na solution (purchased from Sigma) and administered intraperitoneally at a concentration of 70 mg/kg every day. The control group (−) was administered only the solution in the same volume. On the 20th day, paraffin sections of peritoneal tissue prepared by fixation in 4% paraformaldehyde solution were stained with H/E (Hematoxylin/Eosin) and trichrome, and the thickness of the peritoneal mesothelial cell layer was measured under a light microscope.
compound,measurement,setting,value
"O=c1c2ccccc2[se]n1CCn1[se]c2ccccc2c1=O [LX-112, 1,2-[bis(1,2-benzisoselenazolone-3(2H)-ketone)]ethane]",Tumor Diameter (mm),[1],6.2 (±4.8) mm
same,ALT (%),[2],72.2 (±14.1) %
same,AST (%),[2],78 (±17.3) %
same,Lipofuscin (%) Muscle,[3],71 (±6) %
same,Survial (%),[4]; QVD-Oph 20 μM applied 4 hours before,53.9 (±2.2) %
same,Survial (%),[4]; without QVD-Oph,39.5 (±3.7) %
same,inhibition of the death of senescent cells by the caspase inhibitor,"[4]; QVD-Oph 20 μM, ABT-263 1 μM",did not effectively inhibit
same,Submesothelial Thickness (μm),[5],43.1 (±10.4) μm
